This note sets out measurements from ChEMBL document CHEMBL4251728, “Toll-like Receptors for the Treatment of Autoimmune, Inflammation, and Infectious Diseases” (ACS Med Chem Lett, 2018).

The target of this test is T1, Toll-like receptor 7 (Homo sapiens, UniProt Q9NYK1).
T1 sequence (Q9NYK1 whole entry): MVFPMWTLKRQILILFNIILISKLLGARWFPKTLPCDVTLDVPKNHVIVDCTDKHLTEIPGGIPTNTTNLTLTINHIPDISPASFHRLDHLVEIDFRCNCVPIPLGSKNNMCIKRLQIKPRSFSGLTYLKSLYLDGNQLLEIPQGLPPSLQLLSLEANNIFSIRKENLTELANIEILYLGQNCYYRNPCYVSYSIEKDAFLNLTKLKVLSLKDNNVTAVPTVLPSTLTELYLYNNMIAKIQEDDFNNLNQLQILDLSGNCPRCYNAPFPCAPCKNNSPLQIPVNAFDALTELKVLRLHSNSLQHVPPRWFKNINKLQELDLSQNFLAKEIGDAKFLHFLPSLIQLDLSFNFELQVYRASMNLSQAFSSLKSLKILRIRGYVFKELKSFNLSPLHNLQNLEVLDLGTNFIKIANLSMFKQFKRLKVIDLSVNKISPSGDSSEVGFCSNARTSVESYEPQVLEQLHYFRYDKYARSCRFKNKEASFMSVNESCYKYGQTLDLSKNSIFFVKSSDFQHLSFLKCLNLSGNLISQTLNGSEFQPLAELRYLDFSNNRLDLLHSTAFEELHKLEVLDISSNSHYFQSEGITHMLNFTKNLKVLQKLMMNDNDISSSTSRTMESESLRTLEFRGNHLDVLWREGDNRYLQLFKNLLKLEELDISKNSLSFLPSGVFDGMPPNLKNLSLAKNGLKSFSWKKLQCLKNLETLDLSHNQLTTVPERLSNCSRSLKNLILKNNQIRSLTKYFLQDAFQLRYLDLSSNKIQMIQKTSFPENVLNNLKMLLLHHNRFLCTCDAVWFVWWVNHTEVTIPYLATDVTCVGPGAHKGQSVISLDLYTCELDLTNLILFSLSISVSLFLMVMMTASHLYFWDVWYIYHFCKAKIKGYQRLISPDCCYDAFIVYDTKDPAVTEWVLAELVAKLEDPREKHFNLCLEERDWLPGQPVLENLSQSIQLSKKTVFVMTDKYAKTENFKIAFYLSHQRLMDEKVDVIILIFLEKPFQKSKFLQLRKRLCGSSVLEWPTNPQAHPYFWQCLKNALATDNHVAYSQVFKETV
In words: Antagonist activity at TLR7 in HEK cells assessed as decrease in R848-induced NF-kappaB activation incubated for 30 mins followed by R848 addition measured after 5 hrs by steady-Glo reagent based assay. In kind it is cell-based.

By IC50 is commonly meant the concentration that gives 50% inhibition. For the compound `C[C@@H]1C[C@@H](c2ccc(C(F)(F)F)c3ncccc23)CN(C(=O)CCn2cccn2)C1`, the IC50 was greater than 20000 nM.
As for `C[C@@H]1C[C@@H](c2ccc(C#N)c3ncccc23)CN(C(=O)C[C@H]2[C@@H]3CNC[C@@H]32)C1`, the figure is less than 1000 nM; as for `C[C@@H]1C[C@H](c2ccc(C#N)c3ncccc23)CN(C(=O)CC2C3CC2CN(C)C3)C1` (some centres not stated), less than 1000 nM.
As for `CC1CC(c2ccc(C#N)c3ncccc23)CN(CC2CCN(C)C2)C1` (configuration not stated), the IC50 is less than 1000 nM.
The result for `C[C@H]1C[C@@H](NC(=O)[C@@H](O)C(C)(C)C)C[C@H](c2ccc(C(F)(F)F)c3nccnc23)C1` reads less than 1000 nM; that for `C[C@@H]1C[C@H](c2ccc(C#N)c3ncccc23)CN(C(=O)CC2CCN(C)CC2)C1`, less than 1000 nM.
As for `C[C@@H]1C[C@H](N)C[C@H](c2ccc(C(F)(F)F)c3nccnc23)C1`, the figure is less than 1000 nM; as for `C[C@@H]1C[C@H](N)C[C@@H](c2ccc(C(F)(F)F)c3nccnc23)C1`, less than 1000 nM.
The result for `C[C@@H]1C[C@H](c2ccc(C#N)c3ncccc23)CN(C(=O)CN2CCN(C)CC2)C1` reads less than 1000 nM; that for `C[C@@H]1C[C@H](c2ccc(C#N)c3ncccc23)CN(C(=O)NC2CCN(C)CC2)C1`, less than 1000 nM.
As to `C[C@@H]1C[C@H](c2ccc(C(F)(F)F)c3ncccc23)CN(C(=O)NC2CC2)C1`, the IC50 fell in the range of 1000 to 20000 nM.
As for `Cc1ccc([C@H]2C[C@@H](C)CN(C(=O)CC3CCN(C)CC3)C2)c2cccnc12`, the figure is less than 1000 nM.
